Tests used:
[1] = system: non-transformed normal BJ cells; assay: BrdU incorporation and FACS analysis (cell cycle arrest); format: cell-based, human
Procedure: A: is output from a FACS analysis of isogenic-non-transformed, without (panels a-c) (WT) or with (panels d-f) shRNA-mediated knockdown of p53 (p53KD), and oncogene-transformed BJ cells (panels g-i), each treated with 0, 5 or 2.5 μM Compound 1 (a131) for 24 h. Cells were doubly stained with PI (horizontal axis) and BrdU (vertical axis). The BrdU-positive population in panels a-c are indicated as arrows. B: is a diagrammatic representation of an immunoblot analysis showing isogenic non-transformed (normal) and oncogene-transformed BJ cells (transformed) treated with Compound 1 (a131) at 0, 2.5 or 5 μM for 24 h or 48 h. Cells were harvested and total lysates were analysed by detecting p53 and p21. Antibodies raised against β-actin were used as an internal loading control. C and D are histograms showing the percentage of bromodeoxyuracil (BrdU)-positive non-transformed (normal) BJ cells. C: Cells were treated with Group 1 Compound 1 (a131) at 2.5 and 5 μM, Compound 23 (b36) at 2.5 and 5 μM, and Compound 21 (b35) at 5 μM, and Group 2 Compound 25 (a166) at 2.5 and 5 μM, for 24 h. Cells were doubly stained with propidium iodide (PI) and BrdU, and subjected to FACS analysis. The BrdU-positive population are plotted as bars. D: Cells were treated with Group 1 Compound 1 (a131), Compound 16 (b5), and Compound 17 (b9); Group 2 Compound 13 (b12), Compound 12 (b16) and Compound 25 (a166), and Group 3 Compound 3 (a159) at 5 μM for 48 h. The percentage of cells with BrdU positive population, in comparison with DMSO control vehicle, is shown with mean values±S.D. (n=3).
Isogenic non-transformed and oncogene-transformed BJ cells (cultured as in Biology Example 3) were treated with Compound 1 at final concentrations of 2.5 and 5 μM for 24 h. The treated cells were then treated with 30 μM final concentration of 5-bromo-2′-deoxyuridine (BrdU, SIGMA) for 1 h to detect DNA synthesis as a marker for cell proliferation. Subsequently, the cells were fixed in EtOH at 4° C. overnight and permeabilized with 2N HCl/0.5% Triton X-100 for 30 min. The cells were then treated with 0.1M sodium tetraborate for 2 min and stained with anti-BrdU antibody (Invitrogen, Cat#B35129) for 60 min, followed by a 30 min treatment with 20 μg/mL of propidium iodide (PI) and 10 μg/mL RNaseA.
Furthermore, the abilities of additional five (5) Compounds to arrest cells at the stage of G1/S phase of the cell cycle were evaluated. […] The abilities of these Compounds to arrest cells at the stage of G1/S phase of the cell cycle were then measured by using BrdU incorporation assay and FACS analysis. The percentage of cells with BrdU positive population in comparison with DMSO control vehicle was determined and plotted with mean values±S.D. (n=3).

[2] = system: isogenic non-transformed (normal) BJ cells; assay: PI staining and FACS analysis, sub-G1 cell death; format: cell-based, human; conditions: 48 h
Procedure: FIG. 5A is a histogram showing the ability of Compound 1 (a131) and its derivatives Compound 2 (a156), Compound 16 (b5), Compound 17 (b9), all in Group 1; Compound 29 (a219), Compound 13 (b12), Compound 11 (b15), Compound 12 (b16), Compound 25 (a166), all in Group 2; and Compound 3 (a159) from Group 3, to induce cancer selective cell death. Isogenic non-transformed (normal) and oncogene-transformed BJ cells were treated with each compound for 48 h and cells were stained with propidium iodide (PI) and subjected to FACS analysis. The percentage of cells in sub-G1 phase is indicative of the extent of cell death. […] In contrast, the ability of the compounds in Groups 2 and 3 to induce cancer selective cell death was markedly compromised (or reduced).
The Compounds 25 (a166) and 3 (a159) were selected from Group 2 and Group 3, respectively. Isogenic non-transformed normal and oncogene-transformed BJ cells were treated with or without 0.3 μM or 0.6 μM Compound 3 (a159) alone or together with 1.25 μM Compound 25 (a166) for 48 h. Cells were stained with propidium iodide (PI) and subjected to FACS analysis.
Isogenic non-transformed and oncogene-transformed human fibroblast BJ cell lines were cultured in DMEM supplemented with 10% FBS. The cells were treated with Compound 1 (2.5 μM, DMSO). 48 h after treatment, the cells were fixed with ethanol at −30° C. overnight and stained with 20 μg/mL propidium iodide (PI) and 10 μg/mL RNase A for 30 min. These cells were then subjected to flow cytometry (FACS) analysis using MACSQuant (Miltenyi Biotec) to count the percentage of apoptotic cells in sub-G1 peak.
The above procedure was repeated for Group 1 Compounds 2, 16 and 17, Group 2 Compounds 29, 13, 11, 12 and 25 at a concentration of 10 μM, and Group 3 Compound 3 at a concentration of 5 μM.
Isogenic non-transformed normal and oncogene-transformed BJ cells were cultured as in Biology Example 3. The cells were treated with a combination of Compound 3 (Group 3, at a concentration of 0.3 μM or 0.6 μM), and Compound 25 (Group 2, at a concentration of 1.25 μM) for 48 hours. Controls using DMSO, Compound 3 and Compound 25 alone (at the concentrations mentioned above) were also performed.

[3] = system: HCT-15 human colon adenocarcinoma xenografts; assay: Tumour xenograft efficacy, tumour volume; format: in vivo, mice; conditions: HCT15 xenografts; PO or IP twice a day, 12 days; vs vehicle
Procedure: A, B: is a graphical representation of tumour volumes estimated periodically as indicated. Mice bearing established tumour xenografts using HCT15 or MDA-MB-231 cells were treated orally (PO) or intraperitoneally (IP) twice a day with the indicated doses of Compound 1 or Compound 16 for 12 or 15 days. Paclitaxel (PTX) was given intravenously at dose of 40 mg/kg, 3 times every 4 days. Error bars show ±S.D. from mean tumour volumes obtained from 6 mice. Student's t-test was performed to determine the statistical significance (*=p<0.005). C: is a bar graph showing quantification of cells (n>100 per condition) with misaligned chromosomes and multipolar mitotic-spindles. […] tumour sections treated with Compound 16 (80 mg/kg) or control vehicle for 12 days were stained with anti-β-tubulin antibodies and DAPI. The percentage of cells with misaligned chromosomes and multipolar mitotic-spindles was quantified and plotted with mean values±S.D.
Mice bearing established tumor xenografts using HCT15 or MDA-MB-231 cells were treated orally (PO) or intraperitoneally (IP) twice a day with the indicated doses of Compound 1 or its derivative Compound 16 (b5) for 12 or 15 days, respectively. For comparison, paclitaxel (PTX) was given intravenously to mice bearing established tumour xenografts using HCT15 at dose of 40 mg/kg, 3 times every 4 days.

Row | Compound | arrest at the G1/S phase of the cell cycle (BrdU incorporation) ([1]; 5 μM, 48 h (FIG. 9D)) | cell death (population of cells in sub-G1) ([2]; normal BJ cells (FIG. 5A)) | cell death ([2]; Compound 3 0.3 or 0.6 μM, Compound 25 1.25 μM, alone or in combination) | anti-tumour effect (tumour volume) [3] | BrdU-positive cell population ([1]; 24 h, 2.5 and 5 μM (FIG. 9A, 9C))
1 | N#C/C(=C\c1cccc2ncccc12)c1c[nH]c2ccccc12 [Compound 3, (Z)-2-(1H-indol-3-yl)-3-(quinolin-5-yl)acrylonitrile] | failed to do so | significantly induced cell death | did not lead to a significant increase in cell death |  | 
2 | CN1CCN(CC(=O)n2cc(/C(C#N)=C/c3cccc4cnccc34)c3ccccc32)CC1 [Compound 16, (Z)-3-(isoquinolin-5-yl)-2-(1-(2-(4-methylpiperazin-1-yl)acetyl)-1H-indol-3-yl)acrylonitrile] |  |  |  | showed marked anti-tumour effects | 
3 | N#C/C(=C\c1cccc2cnccc12)c1c[nH]c2ccccc12 [Compound 1, (Z)-2-(1H-indol-3-yl)-3-(isoquinolin-5-yl)acrylonitrile] |  |  |  | showed marked anti-tumour effects | markedly decreased the number of BrdU-positive non-transformed normal BJ cells
